“Also recorded” adds a separate entry of the source.
Experiments:
hMC1bR = hMC1bR (Homo sapiens, UniProt Q01726); assay: cAMP functional assay (agonist); assay type: cell-based; settings: selective functional activity
Procedure: (§1) Cells (for example, CHO- or L-cells or other eukaryotic cells) expressing a human melanocortin receptor (see e.g. Yang-Y K; Ollmann-M M; Wilson-B D; Dickinson-C; Yamada-T; Barsh-G S; Gantz-I; Mol-Endocrinol. 1997 March; 11(3): 274-80) were dissociated from tissue culture flasks by rinsing with Ca and Mg free phosphate buffered saline (14190-136, Life Technologies, Gaithersburg, Md.) and detached following 5 min incubation at 37° C. with enzyme free dissociation buffer (S-0,4-B, Specialty Media, Lavellette, N.J.). Cells were collected by centrifugation and resuspended in Earle's Balanced Salt Solution (14015-069, Life Technologies, Gaithersburg, Md.) with additions of 10 mM HEPES pH 7.5, 5 mM MgCl2, 1 mM glutamine and 1 mg/ml bovine serum albumin. Cells were counted and diluted to 1 to 5×10^6/mL. The phosphodiesterase inhibitor 3-isobutyl-1-methylxanthine was added to cells to 0.6 mM.
(§2) Agonist Assay: Test compounds were diluted in dimethylsulfoxide (DMSO) (10^−5 to 10^−10 M) and 0.1 volume of compound solution was added to 0.9 volumes of cell suspension; the final DMSO concentration was […]. After room temperature incubation for 45 min, cells were lysed by incubation at 100° C. for 5 min to release accumulated cAMP.
(§3) cAMP was measured in an aliquot of the cell lysate with the Amersham (Arlington Heights, Ill.) cAMP detection assay (RPA556). The amount of cAMP production which resulted from an unknown compound was compared to that amount of cAMP produced in response to alpha-MSH which was defined as a 100% agonist. The EC50 is defined as the compound concentration which results in half maximal stimulation, when compared to its own maximal level of stimulation.

hMC3R [1] = biological target: T1, hMC3R (Homo sapiens, UniProt P41968); assay: cAMP functional assay (agonist); assay type: cell-based
T1 construct: expressed in transfected cells; host or cells: CHO- or L-cells or other eukaryotic cells
T1 sequence (P41968 whole entry): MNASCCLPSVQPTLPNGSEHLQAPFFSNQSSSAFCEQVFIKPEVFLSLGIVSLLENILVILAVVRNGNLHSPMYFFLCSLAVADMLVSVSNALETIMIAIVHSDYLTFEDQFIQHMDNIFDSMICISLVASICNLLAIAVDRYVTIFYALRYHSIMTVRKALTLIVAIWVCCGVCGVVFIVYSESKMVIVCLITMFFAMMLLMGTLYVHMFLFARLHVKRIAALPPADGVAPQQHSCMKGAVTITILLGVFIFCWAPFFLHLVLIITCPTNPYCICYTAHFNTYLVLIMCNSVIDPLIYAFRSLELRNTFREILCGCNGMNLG
Procedure: as §1, §2, §3

hMC5R [2] = biological target: T2, hMC5R (Homo sapiens, UniProt P33032); assay: cAMP functional assay (agonist); assay type: cell-based
T2 construct: expressed in transfected cells; host or cells: CHO- or L-cells or other eukaryotic cells
T2 sequence (P33032 whole entry): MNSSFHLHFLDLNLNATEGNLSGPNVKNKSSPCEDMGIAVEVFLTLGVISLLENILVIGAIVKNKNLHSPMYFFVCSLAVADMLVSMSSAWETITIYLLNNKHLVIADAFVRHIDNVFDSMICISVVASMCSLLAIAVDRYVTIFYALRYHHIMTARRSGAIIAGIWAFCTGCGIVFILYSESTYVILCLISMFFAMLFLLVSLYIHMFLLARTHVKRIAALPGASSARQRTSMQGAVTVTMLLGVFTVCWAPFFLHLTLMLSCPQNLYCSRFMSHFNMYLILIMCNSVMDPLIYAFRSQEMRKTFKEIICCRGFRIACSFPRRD
Procedure: as §1, §2, §3

hMC2R = biological target: T3, hMC2R (Homo sapiens, UniProt Q01718); assay: cAMP functional assay (agonist); assay type: cell-based
T3 construct: expressed in transfected cells; host or cells: CHO- or L-cells or other eukaryotic cells
T3 sequence (Q01718 whole entry): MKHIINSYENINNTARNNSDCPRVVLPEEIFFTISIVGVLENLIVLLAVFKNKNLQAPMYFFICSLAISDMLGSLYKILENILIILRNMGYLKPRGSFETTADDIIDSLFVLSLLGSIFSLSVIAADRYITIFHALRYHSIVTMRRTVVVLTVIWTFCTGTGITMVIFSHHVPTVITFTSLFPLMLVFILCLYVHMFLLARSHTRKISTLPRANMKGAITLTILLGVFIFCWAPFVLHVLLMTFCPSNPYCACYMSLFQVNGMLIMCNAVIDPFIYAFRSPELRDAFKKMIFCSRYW
Procedure: as §1, §2, §3

hMC3R [3] = biological target: T1, hMC3R; assay: Membrane binding assay, 125I-NDP-alpha-MSH competition; settings: ratio IC50 MC-3R / IC50 MC-4R
Procedure: (§4) The membrane binding assay was used to identify competitive inhibitors of ^125I-NDP-alpha-MSH binding to cloned human MCRs expressed in mouse L- or Chinese hamster ovary (CHO)-cells.
(§5) Cell lines expressing melanocortin receptors were grown in T-180 flasks containing selective medium of the composition: 1 L Dulbecco's modified Eagles Medium (DMEM) with 4.5 g L-glucose, 25 mM Hepes, without sodium pyruvate, (Gibco/BRl); 100 ml 10% heat-inactivated fetal bovine serum (Sigma); 10 mL 10,000 unit/mL penicillin & 10,000 μg/mL streptomycin (Gibco/BRl); 10 ml 200 mM L-glutamine (Gibco/BRl); 1 mg/mL geneticin (G418) (Gibco/BRl). The cells were grown at 37° C. with CO2 and humidity control until the desired cell density and cell number was obtained.
(§6) The medium was poured off and 10 mls/T-180 flask of enzyme-free dissociation media (Specialty Media Inc.) was added. The cells were incubated at 37° C. for 10 min or until cells sloughed off when flask was banged against hand.
(§7) The cells were harvested into 200 mL centrifuge tubes and spun at 1000 rpm, 4° C., for 10 min. […]
(§8) The mixture was filtered with Packard Microplate 196 filter apparatus using Packard Unifilter 96-well GF/C filter with 0.1% polyethyleneimine (Sigma). […] The top was sealed and the radioactivity quantitated in a Packard Topcount Microplate Scintillation counter.

hMC5R [4] = biological target: T2, hMC5R; assay: as above; settings: ratio IC50 MC-5R / IC50 MC-4R
Procedure: as §4, §5, §6, §7, §8

Male Wistar rats = assay: Maintenance operant nicotine self-administration; assay type: in vivo, rat
Procedure: Animals: Male Wistar rats were used in all experiments. Body weight was 180-200 g at the start of the experiments. Rats were housed 2-3 per cage with food and water available ad libitum. Lights were on a 12-hour light/dark cycle, with lights on at 0600. All procedures met the guidelines of the National Institutes of Health Guide for the Care and Use of Laboratory Animals.
Operant Nicotine Self-Administration: Nicotine (Sigma Chemical Co., St. Louis, Mo.) was added to saline to achieve a concentration of 0.03 mg/ml. Standard operant chambers (Med Associates, VT) housed in sound-attenuated chambers were used for nicotine self-administration. Syringe pumps delivered nicotine via tygon tubing. The two retractable levers were located 12 cm apart and 4 cm above the floor. Fluid delivery and recording of operant responding were controlled by microcomputer. Rats were trained on a […] fixed-ratio 4 (FR4) schedule to self-administer nicotine (0.03 mg/ml, 0.1 ml per delivery) in 60 minute sessions. Once reliable levels of nicotine-reinforced self-administration were achieved, the effect of Compound A (0, and 20 mg/kg) on maintenance levels of responding was investigated.

[5] = selective functional activity, 45 min

hMC1bR, sequence (Q01726 whole entry): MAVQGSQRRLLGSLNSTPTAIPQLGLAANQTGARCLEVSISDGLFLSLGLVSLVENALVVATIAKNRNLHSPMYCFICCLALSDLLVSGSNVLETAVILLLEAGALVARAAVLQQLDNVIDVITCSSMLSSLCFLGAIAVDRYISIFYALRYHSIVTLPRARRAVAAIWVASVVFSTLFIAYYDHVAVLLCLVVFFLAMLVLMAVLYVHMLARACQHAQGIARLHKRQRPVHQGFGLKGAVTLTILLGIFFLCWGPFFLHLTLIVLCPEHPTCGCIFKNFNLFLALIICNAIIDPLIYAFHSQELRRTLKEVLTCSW

CC[C@H](NC(C)=O)c1cc(Cl)ccc1C1CCN(C(=O)[C@@H]2CN(C(C)(C)C)C[C@H]2c2ccc(F)cc2F)CC1 [Compound A]
EC50 for melanocortin 4 receptor lower than for melanocortin 1 receptor (hMC1bR): at least 120 fold
Selectivity cAMP EC50 3R/4R (hMC3R [1]; ratio EC50 MC-3R / EC50 MC-4R): 65.71
EC50 for melanocortin 4 receptor lower than for melanocortin 3 receptor (hMC3R [1]; [5]): at least 65 fold
Selectivity cAMP EC50 5R/4R (hMC5R [2]; ratio EC50 MC-5R / EC50 MC-4R): 100
EC50 for melanocortin 4 receptor lower than for melanocortin 5 receptor (hMC5R [2]; [5]): at least 100 fold
Selectivity cAMP EC50 2R/4R (hMC2R; ratio EC50 MC-2R / EC50 MC-4R): >714.2
EC50 for melanocortin 4 receptor lower than for melanocortin 2 receptor (hMC2R; [5]): at least 700 fold
Selectivity Binding IC50 3R/4R (hMC3R [3]): 163.6
Selectivity Binding IC50 5R/4R (hMC5R [4]): 36.36
effect on maintenance levels of nicotine self-administration (nicotine infusions) (Male Wistar rats; 20 mg/kg po prior to testing, 60 minute session, vs baseline (p=0.0001)): significant reductions from baseline levels; also recorded: significant reduction
response rates on the alternate (non-drug reinforced) lever (Male Wistar rats; Wistar rats, any dose tested (0, 20 mg/kg)): not significantly altered; also recorded: no significant effects
reduction of nicotine self administration (Male Wistar rats; Wistar rats, pre-treatment, maintenance period of regular nicotine use): approximately 85%

From US20080021067A1, “Methods For The Treatment Of Substance Abuse And Addiction” (priority 2004, published 2008)
